Some targets named below: PKCγ (Homo sapiens, UniProt P05129); Src (Homo sapiens, UniProt P12931); MARK3 (Homo sapiens, UniProt P27448); S6K1 (Homo sapiens, UniProt P23443).
Assay in all cases: Kinase profile (33P ATP filter binding)
What all share (format): biochemical
Conditions in all cases: read-out: Remaining protein kinase activity

For another test, the target named is T1, TAK1 (Homo sapiens, UniProt O43318).
T1 sequence (O43318 1-303 limits assumed): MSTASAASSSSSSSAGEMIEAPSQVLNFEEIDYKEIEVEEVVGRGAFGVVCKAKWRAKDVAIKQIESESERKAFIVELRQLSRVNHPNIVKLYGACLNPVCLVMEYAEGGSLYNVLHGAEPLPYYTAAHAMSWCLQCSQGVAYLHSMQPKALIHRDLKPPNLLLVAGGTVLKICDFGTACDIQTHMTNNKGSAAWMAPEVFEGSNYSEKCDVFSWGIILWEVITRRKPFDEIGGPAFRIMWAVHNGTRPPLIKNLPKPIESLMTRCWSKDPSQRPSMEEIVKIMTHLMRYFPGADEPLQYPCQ

A further test concerns the target T2, TBK1 (Homo sapiens, UniProt Q9UHD2).
T2 sequence (Q9UHD2 1-729): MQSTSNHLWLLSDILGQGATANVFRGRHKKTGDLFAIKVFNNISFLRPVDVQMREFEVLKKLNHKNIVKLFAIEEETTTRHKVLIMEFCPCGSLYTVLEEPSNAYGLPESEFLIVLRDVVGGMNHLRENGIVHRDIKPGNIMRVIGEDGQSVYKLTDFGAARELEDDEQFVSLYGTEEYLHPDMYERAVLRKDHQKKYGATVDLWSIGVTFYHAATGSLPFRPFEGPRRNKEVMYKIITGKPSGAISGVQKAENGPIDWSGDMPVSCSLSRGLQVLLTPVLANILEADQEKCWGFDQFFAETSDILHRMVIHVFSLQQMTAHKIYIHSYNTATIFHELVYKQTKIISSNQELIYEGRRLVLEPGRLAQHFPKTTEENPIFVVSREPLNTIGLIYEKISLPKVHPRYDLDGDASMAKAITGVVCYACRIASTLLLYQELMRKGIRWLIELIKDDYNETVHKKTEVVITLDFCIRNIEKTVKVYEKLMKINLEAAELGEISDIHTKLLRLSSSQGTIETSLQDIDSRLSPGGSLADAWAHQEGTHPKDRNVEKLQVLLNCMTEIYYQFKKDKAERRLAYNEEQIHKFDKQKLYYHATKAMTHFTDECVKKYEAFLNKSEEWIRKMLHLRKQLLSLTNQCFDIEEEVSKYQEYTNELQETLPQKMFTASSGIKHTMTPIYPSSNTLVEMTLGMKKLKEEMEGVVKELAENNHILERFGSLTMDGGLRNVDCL

The next test has as its target T3, MKK6 (Homo sapiens, UniProt P52564).
T3 sequence (P52564 1-334): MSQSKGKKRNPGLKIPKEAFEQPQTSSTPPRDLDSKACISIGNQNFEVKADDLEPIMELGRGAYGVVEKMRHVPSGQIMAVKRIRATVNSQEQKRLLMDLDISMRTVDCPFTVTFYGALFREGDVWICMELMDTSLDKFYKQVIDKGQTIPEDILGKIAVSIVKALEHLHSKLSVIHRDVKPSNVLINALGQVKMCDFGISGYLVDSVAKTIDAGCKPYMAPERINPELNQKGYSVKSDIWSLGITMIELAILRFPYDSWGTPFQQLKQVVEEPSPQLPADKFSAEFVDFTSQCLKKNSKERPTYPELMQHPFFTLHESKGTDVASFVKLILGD

Like-named read-outs stand apart in the source and are kept apart here.

S6K1, sequence (P23443 whole entry, species assumed): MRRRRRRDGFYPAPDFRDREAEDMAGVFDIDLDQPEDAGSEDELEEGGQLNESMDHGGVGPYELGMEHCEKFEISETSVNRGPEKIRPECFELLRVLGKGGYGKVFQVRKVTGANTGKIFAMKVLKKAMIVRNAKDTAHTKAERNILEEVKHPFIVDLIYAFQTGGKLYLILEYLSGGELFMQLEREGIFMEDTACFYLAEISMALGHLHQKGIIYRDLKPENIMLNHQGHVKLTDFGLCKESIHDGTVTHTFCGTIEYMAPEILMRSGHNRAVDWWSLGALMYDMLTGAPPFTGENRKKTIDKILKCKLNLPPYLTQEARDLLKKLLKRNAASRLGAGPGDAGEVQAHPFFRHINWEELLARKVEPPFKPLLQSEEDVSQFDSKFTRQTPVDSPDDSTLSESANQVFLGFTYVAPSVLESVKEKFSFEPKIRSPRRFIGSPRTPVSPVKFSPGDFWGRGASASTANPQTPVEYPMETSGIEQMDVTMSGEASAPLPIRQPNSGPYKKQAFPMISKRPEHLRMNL
Src, sequence (P12931 whole entry): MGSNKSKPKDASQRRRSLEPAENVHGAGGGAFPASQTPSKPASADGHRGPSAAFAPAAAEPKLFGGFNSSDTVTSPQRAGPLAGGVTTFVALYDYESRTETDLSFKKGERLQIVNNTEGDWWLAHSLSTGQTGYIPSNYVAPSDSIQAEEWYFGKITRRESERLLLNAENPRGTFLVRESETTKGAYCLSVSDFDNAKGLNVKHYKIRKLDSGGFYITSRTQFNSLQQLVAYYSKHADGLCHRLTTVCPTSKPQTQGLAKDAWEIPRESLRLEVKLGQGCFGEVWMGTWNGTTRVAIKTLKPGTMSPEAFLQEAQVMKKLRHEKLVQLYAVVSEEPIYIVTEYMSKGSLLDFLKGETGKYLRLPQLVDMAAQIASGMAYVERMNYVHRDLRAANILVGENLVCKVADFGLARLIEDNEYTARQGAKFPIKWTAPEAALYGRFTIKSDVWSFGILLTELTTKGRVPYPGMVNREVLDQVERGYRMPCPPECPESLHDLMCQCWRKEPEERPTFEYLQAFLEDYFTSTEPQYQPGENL
MARK3, sequence (P27448 whole entry): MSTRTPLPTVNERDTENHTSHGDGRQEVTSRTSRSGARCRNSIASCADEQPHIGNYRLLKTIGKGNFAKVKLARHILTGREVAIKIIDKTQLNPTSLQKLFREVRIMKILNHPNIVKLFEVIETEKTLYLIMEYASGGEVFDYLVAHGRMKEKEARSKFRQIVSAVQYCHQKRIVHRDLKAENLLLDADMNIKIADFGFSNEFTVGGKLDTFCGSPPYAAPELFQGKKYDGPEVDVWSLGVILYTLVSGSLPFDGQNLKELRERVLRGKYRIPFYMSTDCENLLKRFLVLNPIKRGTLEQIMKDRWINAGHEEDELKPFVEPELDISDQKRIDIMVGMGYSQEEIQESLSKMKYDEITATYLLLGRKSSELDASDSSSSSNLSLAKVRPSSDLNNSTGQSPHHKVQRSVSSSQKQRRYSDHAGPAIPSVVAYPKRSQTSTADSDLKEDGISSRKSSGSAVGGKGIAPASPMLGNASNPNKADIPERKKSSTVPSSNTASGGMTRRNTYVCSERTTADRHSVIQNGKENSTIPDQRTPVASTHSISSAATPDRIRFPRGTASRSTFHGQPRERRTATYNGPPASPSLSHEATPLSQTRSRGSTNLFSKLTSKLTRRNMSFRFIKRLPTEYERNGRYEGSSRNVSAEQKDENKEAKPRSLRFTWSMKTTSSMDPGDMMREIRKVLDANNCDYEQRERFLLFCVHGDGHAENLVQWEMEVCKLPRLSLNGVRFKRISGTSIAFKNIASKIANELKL

The remaining activity is the signal under treatment as a percentage of the control signal. Regarding `COc1ccc2sc(-c3cncc(N)c3)nc2c1` [compound 1, 5-(5-Methoxybenzo[d]thiazol-2-yl)pyridin-3-amine], the remaining activity at 1 µM was 70% at TAK1 (TAK1, 1 μM); 105% on TBK1 (TBK1, 1 μM); 120% at MKK6 (MKK6, 1 μM); 115% at PKCγ (PKCγ, 1 μM); 123% at Src (Src, 1 μM); 98% at MARK3 (MARK3, 1 μM). Moreover, the remaining activity at 1 µM at S6K1 (S6K1, 1 μM) turned out to be 118%. Moreover, the remaining activity at 100 µM stood at 6% at TAK1 (TAK1, 100 μM); 60% on TBK1 (TBK1, 100 μM); 118% on MKK6 (MKK6, 100 μM); 61% at PKCγ (PKCγ, 100 μM); 42% at Src (Src, 100 μM); 34% on MARK3 (MARK3, 100 μM). The remaining activity at 100 µM at S6K1 (S6K1, 100 μM) was 58%.
Take `COc1ccc2sc(-c3cncc(NC(C)=O)c3)nc2c1` [PST-001, N-(5-(5-Methoxybenzo[d]thiazol-2-yl)pyridin-3-yl)acetamide]: the remaining activity at 1 µM on TAK1 worked out at 48%; at TBK1, 119%; at MKK6, 140%; on PKCγ, 125%; on Src it was 100%; on MARK3, 99%. The remaining activity at 1 µM at S6K1 stood at 113%. The remaining activity at 100 µM at TAK1 was determined as 63%; on TBK1 it was 104%; at MKK6, 115%; at PKCγ, 124%; on Src it was 106%; on MARK3, 95%. Also, the remaining activity at 100 µM at S6K1 came out at 81%.
